# In ChEMBL document CHEMBL5154783, “Design, synthesis, and evaluation of novel 3-thiophene derivatives as potent fungistatic and fungicidal reagents based on a conformational restriction strategy” (Eur J Med Chem, 2022):
# Active and inactive are the calls of the source. No cut-off for these calls is given here.
# Columns and labels:
# MCF7 = assay: Cytotoxicity against human MCF7 cells assessed as reduction in cell viability incubated for 96 hrs by MTT assay; assay type: functional, cell-based; conditions: MCF7, 96 h
# [1] = molecular target: T1, Lanosterol 14-alpha demethylase (Candida albicans (strain SC5314 / ATCC MYA-2876) (Yeast), UniProt P10613); assay: Inhibition of CYP51 in Candida albicans ATCC SC5314 assessed as eburicol level at 0.0075 ug/ml measured after 18 hrs by GC-MS analysis relative to control; parameters: scale not given: the % may be the effect or the level left; conditions: at 0.0075 µg/mL
# Candida albicans [2] = assay: Antifungal activity against Candida albicans ATCC SC5314 assessed as fungal growth inhibition by CLSI based serial microbroth dilution method; assay type: functional
# Candida albicans [3] = assay: Antifungal activity against FLC-resistant Candida albicans 632 assessed as fungal growth inhibition by CLSI based serial microbroth dilution method; assay type: functional
# A549 = assay: Cytotoxicity against human A549 cells assessed as reduction in cell viability incubated for 96 hrs by MTT assay; assay type: functional, cell-based; conditions: A549, 96 h
# Candida albicans [4] = assay: Antibiofilm activity against Candida albicans […] assessed as inhibition of […] metabolism within the biofilm measured after 6 hrs by XTT reduction assay; assay type: functional
# Cell membrane [5] = assay: Disruption of membrane integrity in Candida albicans ATCC SC5314 assessed as rupture of fungal cells at 16 ug/ml incubated for 48 hrs by transmission electron microscopy; assay type: subcellular; conditions: dose 16.0 µg/ml
# [6] = molecular target: T1, Lanosterol 14-alpha demethylase; assay: Inhibition of CYP51 in Candida albicans ATCC SC5314 assessed as ergosterol level at 0.0075 ug/ml measured after 18 hrs by GC-MS analysis (reference value: 96.93 %); parameters: scale not given: the % may be the effect or the level left; conditions: at 0.0075 µg/mL
# [7] = Stability of the compound in human plasma assessed as parent compound remaining after […] by LC-MS/MS analysis; assay type: ADME, cell-free; conditions: read-out: Stability
# Pichia kudriavzevii = assay: Antifungal activity against Candida krusei GIM 2.1 assessed as fungal growth inhibition by CLSI based serial microbroth dilution method; assay type: functional
# Nakaseomyces glabratus = assay: Antifungal activity against Candida glabrata clinical isolate assessed as fungal growth inhibition by CLSI based serial microbroth dilution method; assay type: functional
# [8] = Cytotoxicity against human THLE-2 cells assessed as reduction in cell viability incubated for 96 hrs by MTT assay; assay type: toxicity, cell-based
# Cell membrane [9] = assay: Disruption of membrane integrity in Candida albicans ATCC SC5314 assessed as endogenous substances leakage at 16 ug/ml incubated for 48 hrs by transmission electron microscopy; assay type: subcellular; conditions: dose 16.0 µg/ml
# Candida albicans [10] = assay: Antibiofilm activity against Candida albicans […] assessed as inhibition of […] metabolism within the biofilm measured after 18 hrs by XTT reduction assay; assay type: functional
# [11] = Stability of the compound in human plasma assessed as parent compound remaining after 120 hrs by LC-MS/MS analysis; assay type: ADME, cell-free; conditions: read-out: Stability
# Cryptococcus neoformans = assay: Antifungal activity against Cryptococcus neoformans CGMCC 2.3161 assessed as fungal growth inhibition by CLSI based serial microbroth dilution method; assay type: functional
# Candida parapsilosis = assay: Antifungal activity against Candida parapsilosis GIM 2.190 assessed as fungal growth inhibition by CLSI based serial microbroth dilution method; assay type: functional; conditions: Lodderomyces parapsilosis
# Candida albicans [12] = assay: Antibiofilm activity against Candida albicans […] assessed as inhibition of […] metabolism activity in the biofilm measured after 24 hrs by XTT reduction assay; assay type: functional
# [13] = molecular target: T1, Lanosterol 14-alpha demethylase; assay: Inhibition of CYP51 in Candida albicans ATCC SC5314 assessed as lanosterol level at 0.0075 ug/ml measured after 18 hrs by GC-MS analysis relative to control; parameters: scale not given: the % may be the effect or the level left; conditions: at 0.0075 µg/mL
# Candida tropicalis = assay: Antifungal activity against Candida tropicalis CGMCC 2.3739 assessed as fungal growth inhibition by CLSI based serial microbroth dilution method; assay type: functional
# Cell membrane [14] = assay: Disruption of membrane integrity in Candida albicans ATCC SC5314 assessed as cell wall damage at 16 ug/ml incubated for 48 hrs by transmission electron microscopy; assay type: subcellular; conditions: dose 16.0 µg/ml
# Aspergillus fumigatus = assay: Antifungal activity against Aspergillus fumigatus CGMCC 3.7795 assessed as fungal growth inhibition by CLSI based serial microbroth dilution method; assay type: functional
# Candida albicans [15] = assay: Antifungal activity against FLC-resistant Candida albicans 311 assessed as fungal growth inhibition by CLSI based serial microbroth dilution method; assay type: functional
# Candida albicans [16] = assay: Fungicidal activity in Candida albicans CPCC400616 assessed as reduction in viable colony formation at 0.25 ug/ml measured within 16 hrs by time kill assay; assay type: functional, organism-based; conditions: dose 0.25 µg/ml
# Candida albicans [17] = assay: Antifungal activity against FLC-resistant Candida albicans 100 assessed as fungal growth inhibition by CLSI based serial microbroth dilution method; assay type: functional
# Candida albicans [18] = assay: Antifungal activity against Candida albicans CPCC400616 assessed as fungal growth inhibition by CLSI based serial microbroth dilution method; assay type: functional
# Candida albicans [19] = assay: Antifungal activity against FLC-resistant Candida albicans CaR assessed as fungal growth inhibition by CLSI based serial microbroth dilution method; assay type: functional
# Candida albicans [20] = assay: Antibiofilm activity against Candida albicans […] assessed as inhibition of […] metabolism activity in the biofilm measured after 48 hrs by XTT reduction assay; assay type: functional
# Cell membrane [21] = assay: Disruption of membrane integrity in Candida albicans ATCC SC5314 assessed as cell membrane damage at 16 ug/ml incubated for 48 hrs by transmission electron microscopy; assay type: subcellular; conditions: dose 16.0 µg/ml
# [22] = molecular target: T1, Lanosterol 14-alpha demethylase; assay: Inhibition of CYP51 in Candida albicans ATCC SC5314 assessed as 14alpha-methylergosta-8,24(28)-dien-3beta-6alpha-diol level at 0.0075 ug/ml measured after 18 hrs by GC-MS analysis relative to control; parameters: scale not given: the % may be the effect or the level left; conditions: at 0.0075 µg/mL
# RAW264.7 = assay: Cytotoxicity against mouse RAW264.7 cells assessed as reduction in cell viability incubated for 96 hrs by MTT assay; assay type: functional, cell-based; conditions: RAW264.7, 96 h
# Candida albicans [23] = assay: Antifungal activity against FLC-resistant Candida albicans 904 assessed as fungal growth inhibition by CLSI based serial microbroth dilution method; assay type: functional
# Candida albicans [24] = assay: Antifungal activity against FLC and ITC-resistant Candida albicans 17 assessed as fungal growth inhibition by CLSI based serial microbroth dilution method; assay type: functional
# Candida albicans [25] = assay: Antibiofilm activity against Candida albicans […] assessed as inhibition of […] metabolism within the biofilm measured after 3 hrs by XTT reduction assay; assay type: functional
# Candida albicans [26] = assay: Antifungal activity against FLC-resistant Candida albicans 103 assessed as fungal growth inhibition by CLSI based serial microbroth dilution method; assay type: functional
# [27] = Cytotoxicity against human HepG2 cells assessed as reduction in cell viability incubated for 96 hrs by MTT assay; assay type: toxicity, cell-based
# Candida albicans [28] = assay: Fungicidal activity against Candida albicans CPCC400616 measured after 48 hrs; assay type: functional
# Candida albicans [29] = assay: Antifungal activity against FLC-resistant Candida albicans 901 assessed as fungal growth inhibition by CLSI based serial microbroth dilution method; assay type: functional
# [30] = molecular target: T1, Lanosterol 14-alpha demethylase; assay: Inhibition of CYP51 in Candida albicans ATCC SC5314 assessed as unknown sterol level at 0.0075 ug/ml measured after 18 hrs by GC-MS analysis (reference value: 3.07 %); parameters: scale not given: the % may be the effect or the level left; conditions: at 0.0075 µg/mL
# [31] = Stability of the compound in human plasma assessed as half life measured after […] by LC-MS/MS analysis; assay type: ADME, cell-free
# [32] = molecular target: T1, Lanosterol 14-alpha demethylase; assay: Inhibition of CYP51 in Candida albicans ATCC SC5314 assessed as 14alpha-methylergosta-8,24(28)-dien-3beta-6alpha-diol level at 0.25 ug/ml measured after 18 hrs by GC-MS analysis relative to control; parameters: scale not given: the % may be the effect or the level left; conditions: at 0.25 µg/mL
# [33] = molecular target: T1, Lanosterol 14-alpha demethylase; assay: Inhibition of CYP51 in Candida albicans ATCC SC5314 assessed as eburicol level at 0.25 ug/ml measured after 18 hrs by GC-MS analysis relative to control; parameters: scale not given: the % may be the effect or the level left; conditions: at 0.25 µg/mL
# [34] = molecular target: T1, Lanosterol 14-alpha demethylase; assay: Inhibition of CYP51 in Candida albicans ATCC SC5314 assessed as lanosterol level at 0.25 ug/ml measured after 18 hrs by GC-MS analysis relative to control; parameters: scale not given: the % may be the effect or the level left; conditions: at 0.25 µg/mL
# [35] = molecular target: T1, Lanosterol 14-alpha demethylase; assay: Inhibition of CYP51 in Candida albicans ATCC SC5314 assessed as ergosterol level at 0.25 ug/ml measured after 18 hrs by GC-MS analysis (reference value: 96.93 %); parameters: scale not given: the % may be the effect or the level left; conditions: at 0.25 µg/mL
# [36] = molecular target: T1, Lanosterol 14-alpha demethylase; assay: Inhibition of CYP51 in Candida albicans ATCC SC5314 assessed as unknown sterol level at 0.25 ug/ml measured after 18 hrs by GC-MS analysis (reference value: 3.07 %); parameters: scale not given: the % may be the effect or the level left; conditions: at 0.25 µg/mL
# T1 sequence (P10613 whole entry): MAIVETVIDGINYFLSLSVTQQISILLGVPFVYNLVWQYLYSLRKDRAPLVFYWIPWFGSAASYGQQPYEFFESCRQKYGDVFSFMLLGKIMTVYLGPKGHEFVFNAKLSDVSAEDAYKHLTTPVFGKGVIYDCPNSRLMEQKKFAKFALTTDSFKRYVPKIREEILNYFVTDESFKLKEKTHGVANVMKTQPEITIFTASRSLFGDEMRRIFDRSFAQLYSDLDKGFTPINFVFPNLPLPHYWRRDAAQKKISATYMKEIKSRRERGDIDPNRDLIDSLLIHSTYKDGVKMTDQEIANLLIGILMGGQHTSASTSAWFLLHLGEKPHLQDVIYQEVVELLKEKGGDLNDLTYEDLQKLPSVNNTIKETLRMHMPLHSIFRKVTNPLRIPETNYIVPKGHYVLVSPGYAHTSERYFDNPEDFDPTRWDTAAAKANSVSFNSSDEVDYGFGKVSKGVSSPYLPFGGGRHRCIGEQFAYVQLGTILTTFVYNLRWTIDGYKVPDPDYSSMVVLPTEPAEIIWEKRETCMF
SMILES,IC50 (MCF7) [µM],MIC (Candida albicans [2]) [µg/mL],MIC (Candida albicans [3]) [µg/mL],IC50 (A549) [µM],MIC50 (Candida albicans [4]) [µg/mL],Activity (Cell membrane [5]),MIC (Pichia kudriavzevii) [µg/mL],MIC (Nakaseomyces glabratus) [µg/mL],IC50 at 96 h [8] [µM],Activity (Cell membrane [9]),MIC50 (Candida albicans [10]) [µg/mL],MIC (Cryptococcus neoformans) [µg/mL],MIC (Candida parapsilosis) [µg/mL],MIC50 (Candida albicans [12]) [µg/mL],MIC (Candida tropicalis) [µg/mL],Activity (Cell membrane [14]),MIC (Aspergillus fumigatus) [µg/mL],MIC (Candida albicans [15]) [µg/mL],MIC (Candida albicans [17]) [µg/mL],MIC (Candida albicans [18]) [µg/mL],also measured
Fc1cccc(F)c1CC1(Cn2cncn2)COC(c2ccc(-c3ccsc3)cc2)=N1 (stereo unspecified),> 50,0.015,4,> 50,0.125,Active,0.125,0.06,> 50,Active,2,0.06,0.125,16,0.03,Active,16,2,1,0.015,Activity [1]: 24.69%; Activity [6]: 4.61%; remaining [7]: 96.8%; remaining at 120 h [11]: 98.2%; Activity [13]: 31.91%; Activity (Candida albicans [16]): Active; MIC (Candida albicans [19]): 0.25 µg/mL; MIC50 (Candida albicans [20]): > 64 µg/mL; Activity (Cell membrane [21]): Active; Activity [22]: 28.2%; IC50 (RAW264.7): 32.5 µM; MIC (Candida albicans [23]): 1 µg/mL; MIC (Candida albicans [24]): 4 µg/mL; MIC50 (Candida albicans [25]): 0.125 µg/mL; MIC (Candida albicans [26]): 1 µg/mL; IC50 at 96 h [27]: 39.3 µM; MFC (Candida albicans [28]): 0.25 µg/mL; MIC (Candida albicans [29]): 0.25 µg/mL; Activity [30]: 1.92%; half-life [31]: > 4.8 h
OC(Cn1cncn1)(Cn1cncn1)c1ccc(F)cc1F [FLUCONAZOLE],> 50,0.5,> 64,> 50,32,Active,8,4,> 50,Active,64,4,2,> 64,0.5,Active,> 64,> 64,> 64,1,Activity [32]: 22.35%; Activity [33]: 29.02%; Activity [34]: 34.42%; Activity [35]: 3.15%; MIC (Candida albicans [19]): > 64 µg/mL; MIC50 (Candida albicans [20]): > 64 µg/mL; Activity (Cell membrane [21]): Active; IC50 (RAW264.7): > 50 µM; MIC (Candida albicans [23]): 32 µg/mL; MIC (Candida albicans [24]): > 64 µg/mL; MIC50 (Candida albicans [25]): 16 µg/mL; MIC (Candida albicans [26]): > 64 µg/mL; IC50 at 96 h [27]: > 50 µM; MFC (Candida albicans [28]): > 64 µg/mL; Activity [36]: 1.59%; MIC (Candida albicans [29]): 64 µg/mL
